Reference: PubChem BioAssay AID2060330 (Molecular Pharmacology Branch, DTP, NCI, 2025)

System: LG0703-F948-PDC spheroids with HUVEC/MSC, viability
Test: Anticancer human tumor LG0703-F948-PDC patient-derived lung adenocarcinoma cell line growth inhibition [IpAb]
Conditions: for IC50: curve of first compound; for viability, T/C: stronger effect = lower value
In short: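 Spheroids of 60% malignant cells, 25% HUVEC and 15% MSC were exposed to targeted agents combined with ipatasertib or abemaciclib. Doses started at or near clinical Cmax (10 microM when unknown) and fell in half-log steps.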

[1] = second compound 0.01 µM, first compound 0.0316 µM
[2] = second compound 0.01 µM, first compound 0.1 µM
[3] = second compound 0.01 µM, first compound 0.316 µM
[4] = second compound 0.01 µM, first compound 1 µM
[5] = second compound 0.01 µM, first compound 3.16 µM
[6] = second compound 0.01 µM, first compound 10 µM
[7] = second compound 0.0316 µM, first compound 0.0316 µM
[8] = second compound 0.0316 µM, first compound 0.1 µM
[9] = second compound 0.0316 µM, first compound 0.316 µM
[10] = second compound 0.0316 µM, first compound 1 µM
[11] = second compound 0.0316 µM, first compound 3.16 µM
[12] = second compound 0.0316 µM, first compound 10 µM
[13] = second compound 0.1 µM, first compound 0.0316 µM
[14] = second compound 0.1 µM, first compound 0.1 µM
[15] = second compound 0.1 µM, first compound 0.316 µM
[16] = second compound 0.1 µM, first compound 1 µM
[17] = second compound 0.1 µM, first compound 3.16 µM
[18] = second compound 0.1 µM, first compound 10 µM
[19] = second compound 0.316 µM, first compound 0.0316 µM
[20] = second compound 0.316 µM, first compound 0.1 µM
[21] = second compound 0.316 µM, first compound 0.316 µM
[22] = second compound 0.316 µM, first compound 1 µM
[23] = second compound 0.316 µM, first compound 3.16 µM
[24] = second compound 0.316 µM, first compound 10 µM
[25] = second compound 1 µM, first compound 0.0316 µM
[26] = second compound 1 µM, first compound 0.1 µM
[27] = second compound 1 µM, first compound 0.316 µM
[28] = second compound 1 µM, first compound 1 µM
[29] = second compound 1 µM, first compound 3.16 µM
[30] = second compound 1 µM, first compound 10 µM
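Note: spheroids exposed to compounds for seven days before readout.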
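Throughout, for viability, T/C: T/C percent relative to DMSO vehicle wells set as 100% viability.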

| Structure (SMILES) | IC50 (second compound 0.01 µM) [nM] | IC50 (second compound 0.0316 µM) [nM] | IC50 (second compound 0.1 µM) [nM] | IC50 (second compound 0.316 µM) [nM] | IC50 (second compound 1 µM) [nM] | viability, T/C [1] [%] | viability, T/C [2] [%] | viability, T/C [3] [%] | viability, T/C [4] [%] | viability, T/C [5] [%] | viability, T/C [6] [%] | viability, T/C [7] [%] | viability, T/C [8] [%] | viability, T/C [9] [%] | viability, T/C [13] [%] | viability, T/C [14] [%] | viability, T/C [19] [%] | viability, T/C [20] [%] | viability, T/C [25] [%] | viability, T/C [26] [%] | further results |
| --- | --- | --- | --- | --- | --- | --- | --- | --- | --- | --- | --- | --- | --- | --- | --- | --- | --- | --- | --- | --- | --- |
| C=CC(=O)N1CCN(c2nc(=O)n(-c3c(C)ccnc3C(C)C)c3nc(-c4c(O)cccc4F)c(F)cc23)C(C)C1 (stereo not given) + CCN1CCN(Cc2ccc(Nc3ncc(F)c(-c4cc(F)c5nc(C)n(C(C)C)c5c4)n3)nc2)CC1 | > 10000 | > 10000 | > 10000 | > 10000 | > 10000 | 110 | 110 | 107 | 121 | 111 | 79.5 | 95.5 | 92 | 94.2 | 86.6 | 95.5 | 88.1 | 85.6 | 89.8 | 82.9 | viability, T/C [10]: 104%; viability, T/C [11]: 99.2%; viability, T/C [12]: 75.9%; viability, T/C [15]: 91.2%; viability, T/C [16]: 94.5%; viability, T/C [17]: 91.8%; viability, T/C [18]: 73%; viability, T/C [21]: 82.3%; viability, T/C [22]: 97.7%; viability, T/C [23]: 95.6%; viability, T/C [24]: 79.6%; viability, T/C [27]: 46.8%; viability, T/C [28]: 96.6%; viability, T/C [29]: 95.7%; viability, T/C [30]: 73.1% |
| Cn1ncc(Cl)c1-c1cc(C(=O)NC(CN)Cc2cccc(F)c2)sc1Cl (stereo not given) + CCN1CCN(Cc2ccc(Nc3ncc(F)c(-c4cc(F)c5nc(C)n(C(C)C)c5c4)n3)nc2)CC1 | 643 | 401 | 372 | 349 | 278 | 88 | 67.6 | 59.3 | 49.3 | 21.5 | 0.13 | 86.1 | 63.7 | 51.3 | 86.3 | 68.8 | 86.1 | 70 | 77.9 | 71.5 | viability, T/C [10]: 45.9%; viability, T/C [11]: 13.3%; viability, T/C [12]: 0.13%; viability, T/C [15]: 44.4%; viability, T/C [16]: 46.4%; viability, T/C [17]: 13.5%; viability, T/C [18]: 0.13%; viability, T/C [21]: 41.9%; viability, T/C [22]: 48.7%; viability, T/C [23]: 7.04%; viability, T/C [24]: 0.12%; viability, T/C [27]: 37.4%; viability, T/C [28]: 40.1%; viability, T/C [29]: 1.07%; viability, T/C [30]: 0.17% |
| Cn1ncnc1[C@H]1c2n[nH]c(=O)c3cc(F)cc(c23)N[C@@H]1c1ccc(F)cc1 + CCN1CCN(Cc2ccc(Nc3ncc(F)c(-c4cc(F)c5nc(C)n(C(C)C)c5c4)n3)nc2)CC1 | > 100 | > 100 | > 100 | > 100 | > 100 | 91.2 | 88.8 |  |  |  |  | 92.6 | 83.4 |  | 74.4 | 84.3 | 84.1 | 76.7 | 74.4 | 80.2 | viability, T/C (second compound 0.01 µM, first compound 0.000316 µM): 104%; viability, T/C (second compound 0.01 µM, first compound 0.001 µM): 98%; viability, T/C (second compound 0.01 µM, first compound 0.00316 µM): 99.2%; viability, T/C (second compound 0.01 µM, first compound 0.01 µM): 97.3%; viability, T/C (second compound 0.0316 µM, first compound 0.000316 µM): 94%; viability, T/C (second compound 0.0316 µM, first compound 0.001 µM): 91.4%; viability, T/C (second compound 0.0316 µM, first compound 0.00316 µM): 79.9%; viability, T/C (second compound 0.0316 µM, first compound 0.01 µM): 86.1%; viability, T/C (second compound 0.1 µM, first compound 0.000316 µM): 79.5%; viability, T/C (second compound 0.1 µM, first compound 0.001 µM): 88.8%; viability, T/C (second compound 0.1 µM, first compound 0.00316 µM): 73%; viability, T/C (second compound 0.1 µM, first compound 0.01 µM): 75.2%; viability, T/C (second compound 0.316 µM, first compound 0.000316 µM): 85.6%; viability, T/C (second compound 0.316 µM, first compound 0.001 µM): 80.6%; viability, T/C (second compound 0.316 µM, first compound 0.00316 µM): 67.7%; viability, T/C (second compound 0.316 µM, first compound 0.01 µM): 86.8%; viability, T/C (second compound 1 µM, first compound 0.000316 µM): 82.2%; viability, T/C (second compound 1 µM, first compound 0.001 µM): 72.7%; viability, T/C (second compound 1 µM, first compound 0.00316 µM): 43.4%; viability, T/C (second compound 1 µM, first compound 0.01 µM): 68.9% |
